According to patent US5348956A, “Substituted cyclopropylamino-1,3,5-triazines” (UCB S.A., priority 1991, dated 1994):
Read-outs that look alike come from different tables or passages of the source.

Experiments:
[1] = tested on: anaphylactic release of histamine, guinea-pig lung sections; test: inhibition of the anaphylactic release of histamine (proper effect); format: cell-based, Dunkin-Hartley guinea-pigs; conditions: Cavia porcellus, in vitro, read-out: Minimum inhibitory dose (MID)
Method: (§1) Dunkin-Hartley guinea-pigs which are first passively sensitized by an intravenous injection of 1 ml of isologous antiovalbumin serum are used. Twenty-four hours after the injection, the lungs are then perfused with a Tyrode buffer to evacuate the blood, and then removed and cut into sections of 1 mm. These sections are divided up into test tubes (3 sections per tube) to give 10 experimental groups of lung sections per guinea-pig. A "positive" control group of lung sections is stimulated by addition of an ovalbumin solution (0.1 mg/ml) to induce the anaphylactic release of histamine and serves to determine the maximum amount of histamine (100%) which can be released. A "negative" control group which is not stimulated by ovalbumin serves to determine the naturally released amount of histamine (spontaneous release). In three other groups, the lung sections are incubated at 37° C. for 30 minutes in the ovalbumin solution in the presence of three different doses of the compound to be tested (one dose per group). […] At this dose, isoprenaline inhibits the release of histamine by 30 to 40%, which is verified on a control group treated only with isoprenaline alone at this dose. In addition, a supplementary control group which is not stimulated by ovalbumin is used to detect a possible spontaneous release of histamine by the highest dose of the compound tested. In each group, the histamine released in the incubation medium is measured by spectrofluorometry (D. P. EVANS et al., Life Sci., 12, (1973), 327-336).

PMN granulocytes = test: inhibition of the stimulation of PMN granulocytes (chemiluminescence); format: cell-based, Rat; conditions: for activity at 1 µM: FMLP 3.2×10^-7 mole/liter
Description: Polymorphonuclear neutrophil granulocytes (PMN) are cells which are mobilized during inflammatory phenomena and which can be stimulated by various compounds, such as, for example, formylmethionyl-leucylphenylalanine (FMLP) or prostaglandins E (PGE1). The PMN granulocytes respond to these extracellular stimuli with an activation of the oxygen metabolism with release of toxic oxygenated metabolites. An excessive response of the PMN granulocytes may be the cause of a painful inflammation and is also accompanied by a reduction in the level of cyclic adenosine monophosphate (cAMP) in these granulocytes. Consequently, compounds which inhibit the respiratory burst of PMN granulocytes or which increase the level of cAMP can be regarded as very important in the treatment of arthritis and asthma. […] Rat PMN granulocytes (5×10^6 /ml) are preincubated in a phosphate buffer ([…], pH 7.4), containing luminol at a concentration of 10^-5 mole per liter, for 15 minutes at 37° C. and then for 5 minutes in the presence of the compound to be treated at a concentration of 10^-6 mole/liter. […] The luminescence which results from the stimulation is measured by means of an LKB 1251 luminometer according to the method of […] and […] (Infection and Immunology, 37, (1982), 34-39). An experimental cycle lasts 38 seconds. The reaction is repeated 9 times for each compound to be tested and the average of the results obtained is calculated.

[2] = tested on: bronchospasm induced by histamine; test: bronchospasmolytic activity (Konzett and Roessler), bronchospasm induced by histamine; format: in vivo, Dunkin-Hartley guinea-pig; conditions: Cavia porcellus, read-out: Doses (ID50), Histamine
Method: (§2) This activity was measured in the Dunkin-Hartley guinea-pig by the method of H. KONZETT and […] (Naunyn Schmiedebergs Arch. exp. Path. […] The anesthetized (urethane) and curarized (gallamine) guinea-pig is placed under assisted respiration. The endotracheal pressure is recorded. […] The compound to be tested is also administered intravenously two minutes before the administration of the spasmogen and then in 3 to 4 cumulative doses in increasing amounts at intervals of 15 minutes. Six animals per compound to be tested and per spasmogen are used.

[3] = tested on: bronchospasm induced by serotonin; test: bronchospasmolytic activity (Konzett and Roessler), bronchospasm induced by serotonin; format: in vivo, Dunkin-Hartley guinea-pig; conditions: Cavia porcellus, read-out: Doses (ID50), Serotonin
Method: as §2

[4] = tested on: bronchospasm induced by acetylcholine; test: bronchospasmolytic activity (Konzett and Roessler), bronchospasm induced by acetylcholine; format: in vivo, Dunkin-Hartley guinea-pig; conditions: Cavia porcellus, read-out: Doses (ID50), Acetylcholine
Method: as §2

[5] = tested on: anaphylactic release of histamine, guinea-pig lung sections; test: potentiation of the inhibition of anaphylactic histamine release by isoprenaline; format: cell-based, Dunkin-Hartley guinea-pigs; conditions: with isoprenaline 10^-7 mole per liter
Method: as §1

cAMP in PMN granulocytes = test: increase in the level of cAMP in PMN granulocytes; format: cell-based, Rat; conditions: […]10^-6 mole per liter; PGE1 10^-6 mole/liter; control 4.3
Description: Polymorphonuclear neutrophil granulocytes (PMN) are cells which are mobilized during inflammatory phenomena and which can be stimulated by various compounds, such as, for example, formylmethionyl-leucylphenylalanine (FMLP) or prostaglandins E (PGE1). The PMN granulocytes respond to these extracellular stimuli with an activation of the oxygen metabolism with release of toxic oxygenated metabolites. An excessive response of the PMN granulocytes may be the cause of a painful inflammation and is also accompanied by a reduction in the level of cyclic adenosine monophosphate (cAMP) in these granulocytes. […] The reaction is then stopped by addition of 1 ml of propanol. After centrifugation at 15,000 g for 3 minutes, the supernatant is recovered and evaporated and the amount of cAMP in the residue is determined by radioimmunological assay according to the process recommended by the supplier of the reagent used for this purpose (Amersham). A control test is carried out under the same conditions, but in the absence of the compound to be tested.

[6] = tested on: longitudinal muscles of the ileum contracted by histamine; test: potentiation of the myorelaxing effect of isoprenaline on the ileum; format: cell-based, Dunkin-Hartley guinea-pigs; conditions: with isoprenaline 10^-7 mole/l; histamine 3.2 μmoles/l
Method: (cf. R. A. TURNER, "Screening Methods in Pharmacology", Ed. Acad. Press, San Diego, 1965, chapter IV, pages 43-47). […] Inhibition cycle: When the successive contractions induced by the histamine injections have become reproducible, the compound to be tested is injected immediately after the second wash. The contraction induced by the following injection of histamine is measured and compared with the average of the three preceding contractions caused by the repeated injections of histamine (control contractions). From the result obtained, the percentage inhibition of the contraction is calculated. Several cycles of histamine injection are then performed again, until the contractions of the muscle become reproducible again; the muscle is then ready for testing of another compound. The potentiating effect of a compound is measured in the course of a so-called "potentiation" cycle, which comprises three successive inhibition cycles. […] In the course of the second inhibition cycle, the percentage inhibition of the contraction obtained with the compound to be tested, injected alone at a given dose, is determined. In the third inhibition cycle, isoprenaline and the compound to be tested are injected simultaneously, and the percentage inhibition of the contraction is calculated for the dose used of the compound tested. The same experiments are repeated for each of the doses of the compounds tested.

[7] = tested on: plantar edema induced by immune complexes; test: "reverse passive Arthus" (RPA) test, anti-inflammatory and anti-edema activity; format: in vivo, Sprague-Dawley rat; conditions: Rattus norvegicus, intravenous
Method: The reaction between a soluble antigen and antibodies in the organism may lead to an acute inflammatory reaction accompanied by release of histamine, modification of vascular permeability and formation of a localized edema. […] To this end, the Arthus reaction is induced by subplantar administration of 0.1 ml of heterologous antivalbumin reaginic serum into the right hind paw and by simultaneous intravenous injection of 1 ml/kg ovalbumin (25 mg/ml). The compound to be tested is administered intravenously 30 seconds before induction of the Arthus reaction, in a least 3 different doses. A group of 6 rats is used per dose of compound to be tested. The volume of the paw is measured by plethysmometry before the Arthus reaction and 3 to 5 hours after induction of the Arthus reaction, both in the control animals and in the treated animals. The effect of a compound on the reduction in the edema for each dose and at each measurement time (3 hours and 5 hours) is expressed in % of the edema observed in the control animals. The doses of the compounds (ID30 in μmole/kg) which inhibit by 30%, on average over all the animals, the volume of the edema observed in the control animals are given in Table VII below.

[8] = multiple-trial passive avoidance: learning; format: in vivo, male Sprague-Dawley rats
Method: To evaluate whether a compound can promote learning, the following test is carried out. […] Rats which remain on the mat for this period have acquired the avoidance reflex and are replaced in their original cage without receiving the electric shock. […] The results obtained in the test used to evaluate learning are given in columns 3 and 4. […] The results were analyzed by the Student test.

[9] = tested on: amnesia induced by scopolamine; test: multiple-trial passive avoidance: mnemic retention, amnesia induced by scopolamine
Method: To this end, the method of multiple-trial passive avoidance has been used. […] The test is carried out on male Sprague-Dawley rats (160-200 g). which are kept in standard cages throughout the experiment. The apparatus used is a transparent square cage with 35 cm sides and 25 cm high, fitted with a grid floor which can be electrified. A rubber insulating mat (10×17 cm) is placed on the floor in one of the corners of the cage.
Each animal is subjected to four tests at times 0, 4, 24 and 28 hours. In the first test (time 0), the animal is placed on the rubber mat and the time which it takes to decide to leave this position to explore the cage is recorded. After 20 seconds of exploration, the rat receives an electric shock (3 seconds duration) in the paws, causing an escape reaction. The rat is immediately removed from the apparatus and replaced in its original cage. In the course of the three subsequent tests (times: 4, 24 and 28 hours), the animal is replaced on the rubber mat and the time taken to leave this position is recorded. As soon as the four paws of the animal rest on the grid, it receives an electric shock and is removed immediately from the apparatus.
At the start of the experiment, the rats are divided into 4 homogeneous groups of 15 animals. Thirty minutes before each test, each group of animals is subjected to a predetermined treatment:
Groups 1 and 2 are used in the first experiment (learning) and groups 3 and 4 in the second experiment (mnemic retention).
The differences found are analyzed statistically by the Mann-Whitney method.

toxicity, Irwin's test = format: in vivo; conditions: i.p.; death of two animals out of three within 48 hours
Method: Progressive doses of the compound to be tested are administered intraperitoneally to groups of three mice until the lethal dose is reached (dose which causes the death of two animals out of three within 48 hours).

[10] = Rattus norvegicus, 10^-6 mole/l, read-out: Residual chemiluminescence
[11] = 3 hours after induction of the Arthus reaction, read-out: Dose (ID30), 3 hours
[12] = 5 hours after induction of the Arthus reaction, read-out: Dose (ID30), 5 hours
[13] = intravenous, histamine-induced bronchospasm
[14] = intravenous, serotonin-induced bronchospasm
[15] = intravenous, acetylcholine-induced bronchospasm

Cn1c(=O)c2[nH]cnc2n(C)c1=O [theophylline, reference compound]
minimal effective concentration [1]: 100 µM
inhibition of the stimulation of PMN granulocytes (PMN granulocytes; 10^-6 mole/l): completely inactive
activity at 100 µM (PMN granulocytes; Rattus norvegicus, 10^-4 mole/l, read-out: Residual chemiluminescence): 65%
activity at 1 µM (PMN granulocytes; [10]): 100%
ED50 ([2]; iv): 5.6 µmol/kg
ED50 ([3]; iv): 4.6 µmol/kg
ED50 ([4]; iv): 10 µmol/kg
Minimum potentiating dose (MPD) [5]: 1000.0 µmol/L
Amount of cAMP produced (cAMP in PMN granulocytes): 5.0 picomoles per 10^7 cells
Minimum potentiating dose (MPD) [6]: 1000.0 µmol/L
ED30 [7, 11]: 18 µmol/kg
ED30 [7, 12]: 10 µmol/kg

CNC(=O)Oc1ccc2c(c1)[C@]1(C)CCN(C)[C@@H]1N2C [physostigmine, reference compound]
Learning, average number of trials, group 2 ([8]; 0.4 mg/kg i.p.): 2.3 trials
Period of remaining on the mat, group 4 ([9]; 4 hours, 0.4 mg/kg i.p. + 0.5 mg scopolamine): 17.8 s
Period of remaining on the mat, group 4 ([9]; 24 hours, 0.4 mg/kg i.p. + 0.5 mg scopolamine): 56.2 s
Period of remaining on the mat, group 4 ([9]; 28 hours, 0.4 mg/kg i.p. + 0.5 mg scopolamine): 53.4 s
side effects / toxicity at the active dose ([9]; at the dose active against scopolamine amnesia): at a dose which has side effects and is very close to the toxic dose
action against the amnesic effect of scopolamine ([9]; similar to that of the compounds according to the invention): favorable action against the amnesic effect of scopolamine
Period of remaining on the mat, group 4 ([9]; time 0, 0.4 mg/kg i.p. + 0.5 mg scopolamine): 1.9 s

CCCc1nc(NC2CC2)nc(N2CC(O)C2)n1 [Compound 15]
minimal effective concentration [1]: 10 µM
activity at 1 µM (PMN granulocytes; [10]): 70%
ED50 [2, 13]: 0.08 µmol/kg
ED50 [3, 14]: 0.2 µmol/kg
Learning, average number of trials, group 2 ([8]; 2.5 mg/kg i.p.): 1.9 trials
Lethal dose (toxicity, Irwin's test): > 498 mg/kg
ED50 [4, 15]: 0.3 µmol/kg
Minimum potentiating dose (MPD) [5]: 3.2 µmol/L
Period of remaining on the mat, group 4 ([9]; 4 hours, 2.5 mg/kg i.p. + 0.5 mg scopolamine): 19.5 s
Period of remaining on the mat, group 4 ([9]; 24 hours, 2.5 mg/kg i.p. + 0.5 mg scopolamine): 94.3 s
Period of remaining on the mat, group 4 ([9]; 28 hours, 2.5 mg/kg i.p. + 0.5 mg scopolamine): 112.7 s
Period of remaining on the mat, group 4 ([9]; time 0, 2.5 mg/kg i.p. + 0.5 mg scopolamine): 9.8 s
Minimum potentiating dose (MPD) [6]: 3.2 µmol/L
ED30 [7, 11]: 39 µmol/kg
ED30 [7, 12]: 4 µmol/kg

Cc1nc(NC2CC2)nc(N2CC3CCC(C2)O3)n1.Cl [Compound 9, 2-Cyclopropylamino-4-methyl-6-(8-oxa-3-azabicyclo[3,2,1]oct-3-yl)-1,3,5-triazine hydrochloride]
minimal effective concentration [1]: 3.2 µM
activity at 1 µM (PMN granulocytes; [10]): 82%
ED50 [2, 13]: 0.4 µmol/kg
ED50 [3, 14]: 1 µmol/kg
Learning, average number of trials, group 2 ([8]; 3.0 mg/kg i.p.): 2.9 trials
Lethal dose (toxicity, Irwin's test): 297.8 mg/kg
ED50 [4, 15]: 2.1 µmol/kg
Minimum potentiating dose (MPD) [5]: 3.2 µmol/L
Period of remaining on the mat, group 4 ([9]; 4 hours, 3.0 mg/kg i.p. + 0.5 mg scopolamine): 17.3 s
Period of remaining on the mat, group 4 ([9]; 24 hours, 3.0 mg/kg i.p. + 0.5 mg scopolamine): 38.1 s
Period of remaining on the mat, group 4 ([9]; 28 hours, 3.0 mg/kg i.p. + 0.5 mg scopolamine): 65.2 s
Period of remaining on the mat, group 4 ([9]; time 0, 3.0 mg/kg i.p. + 0.5 mg scopolamine): 3.6 s
Minimum potentiating dose (MPD) [6]: 10.0 µmol/L
ED30 [7, 11]: 3.4 µmol/kg
ED30 [7, 12]: 4.4 µmol/kg
